Source: patent EP0907632B1, “INHIBITION OF MATRIX METALLOPROTEASES BY SUBSTITUTED PHENETHYL COMPOUNDS” (Bayer Corporation, priority 1996, dated 1997)

Columns and labels:
[1] = target: T1, MMP-2 (Homo sapiens, UniProt P08253); assay: biochemical
T1 sequence (P08253 110-660): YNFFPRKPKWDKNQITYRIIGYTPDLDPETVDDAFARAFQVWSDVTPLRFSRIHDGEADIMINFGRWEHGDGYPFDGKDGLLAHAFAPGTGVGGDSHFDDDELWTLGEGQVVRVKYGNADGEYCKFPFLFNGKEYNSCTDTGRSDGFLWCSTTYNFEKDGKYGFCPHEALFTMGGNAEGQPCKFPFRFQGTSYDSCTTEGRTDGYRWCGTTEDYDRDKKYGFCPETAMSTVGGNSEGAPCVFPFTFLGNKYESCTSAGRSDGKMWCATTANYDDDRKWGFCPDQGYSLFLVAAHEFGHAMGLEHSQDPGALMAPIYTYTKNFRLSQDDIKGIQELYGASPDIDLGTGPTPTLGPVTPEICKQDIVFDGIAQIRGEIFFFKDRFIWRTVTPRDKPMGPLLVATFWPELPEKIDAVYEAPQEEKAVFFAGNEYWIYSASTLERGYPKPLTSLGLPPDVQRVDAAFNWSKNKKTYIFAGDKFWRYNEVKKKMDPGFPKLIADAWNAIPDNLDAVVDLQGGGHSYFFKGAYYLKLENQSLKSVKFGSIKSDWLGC

[2] = target: T2, MMP-3 (Homo sapiens, UniProt P08254); format: biochemical; conditions: 6 µM P218 substrate, pH 6.5, 25 min at 37°C; calculated from IC50; read-out: MMP-3 Kf
T2 construct: made in house; host or cells: CHO cells
T2 sequence (P08254 100-477): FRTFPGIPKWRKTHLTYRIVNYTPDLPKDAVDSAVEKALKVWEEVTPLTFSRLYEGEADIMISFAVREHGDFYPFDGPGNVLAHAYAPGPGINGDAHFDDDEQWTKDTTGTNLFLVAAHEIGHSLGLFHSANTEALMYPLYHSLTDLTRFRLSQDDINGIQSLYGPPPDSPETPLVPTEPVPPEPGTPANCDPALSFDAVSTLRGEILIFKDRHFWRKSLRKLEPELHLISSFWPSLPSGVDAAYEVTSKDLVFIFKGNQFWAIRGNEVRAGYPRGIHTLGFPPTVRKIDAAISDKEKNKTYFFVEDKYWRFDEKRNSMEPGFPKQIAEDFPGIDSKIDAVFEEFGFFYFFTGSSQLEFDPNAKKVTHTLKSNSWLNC
From the text: (§1) The P218 quenched fluorescence assay (Microfluorometric Profiling Assay) is a modification of that originally described by Knight, et al., FEBS Lett. 296, 263, 1992 for a related substance and a variety of matrix metalloproteinases (MMPs) in cuvettes. The assay was run with each invention compound and the three MMPs, Mmp-3, MMP-9 and MMP-2, analyzed in parallel, adapted as follows for a 96-well microtiter plate and a Hamilton AT® workstation. P218 Fluorogenic Substrate: P218 is a synthetic substrate containing a 4-acetyl-7-methoxycoumarin (MCA) group in the N-terminal position and a 3-[2, 4-dinitrophenyl]-L-2,3-diaminopropionyl (DPA) group internally. This is a modification of a peptide reported by Knight (1992) that was used as a substrate for matrix metalloproteinases. Once the P218 peptide is cleaved (putative clip site at the Ala-Leu bond), the fluorescence of the MCA group can be detected on a fluorometer with excitation at 328 nm and emission at 393 nm. P218 is currently being produced BACHEM exclusively for Bayer. P218 has the structure: H-MCA-Pro-Lys-Pro-Leu-Ala-Leu-DPA-Ala-Arg-NH2 (MW 1332.2)
Recombinant Human CHO Pro-MMP-3: Human CHO pro-stromelysin-257 (pro-MMP-3) was expressed and purified as described by Housley, et al., J. Biol. Chem. 268, 4481, 1993.
Activation of Pro-MMP-3 Pro-MMP-3 at 1.72 µM (100 µg/mL) in 5 mM Tris at pH 7.5, 5 mM CaCl2, 25 mM NaCl, and 0.005% Brij-35 (MMP-3 activation buffer) was activated by incubation with TPCK (N-tosyl-(L)-phenylalanine chloromethyl ketone) trypsin (1:100 w/w to pro-MMP-3) at 25 °C for 30 min. The reaction was stopped by addition of soybean trypsin inhibitor (SBTI: 5:1 w/w to trypsin concentration). This activation protocol results in the formation of 45 kDa active MMP-3, which still contains the C-terminal portion of the enzyme.
(§2) Hamiltion Microlab AT P!us: The MMP-Profiling Assay is performed robotically on a Hamilton MicroLab AT Plus®. The Hamilton is programmed to: (1) serially dilute up to 11 potential inhibitors automatically from a 2.5 mM stock in 100% DMSO; (2) distribute substrate followed by inhibitor into a 96 well Cytofluor plate; and (3) add a single enzyme to the plate with mixing to start the reaction. Subsequent plates for each additional enzyme are prepared automatically by beginning the program at the substrate addition point, remixing the diluted inhibitors and beginning the reaction by addition of enzyme. In this way, all MMP assays were done using the same inhibitor dilutions.
(§3) Millipore Cytofluor II. Following incubation, the plate was read on a Cytofluor II fluorometric place reader with excitation at 340 nm and emission at 395 nm with the gain set at 80.
(§4) Microfluorometric Reaction Buffer (MRB): Dilution of test compounds, enzymes, and P218 substrate for the microfluorometric assay were made in microfluorometric reaction buffer consisting of 50 mM 2-(N-morpholino)ethanesulfonic acid (MES) at pH 6.5 with 10 mM CaCl2, 150 mM NaCl, 0.005% Brij-35 and 1% DMSO.
(§5) MMP Microfluorometric Profiling Assay. The assay is done with a final substrate concentration of 6 µM P218 and approximately .5 to .8 nM MMP with variable drug concentrations. The Hamilton is programmed to serially dilute up to 11 compounds from a 2.5 mM stock (100% DMSO) to 10x the final compounds concentrations in the assay. Initially, the instrument delivers various amounts of microfluoromentric reaction buffer (MRB) to a 96 tube rack of 1 ml Marsh dilution tubes. The instrument then picks up 20 µl of inhibitor (2.5 mM) from the sample rack and mixes it with a buffer in row A of the Marsh rack, resulting in a 50 µM drug concentration. The inhibitors are then serially diluted to 10, 5, 1, .2, .05 and .01 µM. Position 1 on the sample rack contains only DMSO for the "enzyme-only" wells in the assay, which results in no inhibitor in column 1, rows A through H. The instrument then distributes 107 µl of P218 substrate (8.2 µM in MRB) to a single 96 well cytofluor microtiter plate. […]

[3] = target: T3, MMP-9 (Homo sapiens, UniProt P14780); format: biochemical; conditions: 6 µM P218 substrate, pH 6.5, 25 min at 37°C; calculated from IC50; read-out: MMP-9 Kf
T3 construct: made in house
T3 sequence (P14780 107-707 limits assumed): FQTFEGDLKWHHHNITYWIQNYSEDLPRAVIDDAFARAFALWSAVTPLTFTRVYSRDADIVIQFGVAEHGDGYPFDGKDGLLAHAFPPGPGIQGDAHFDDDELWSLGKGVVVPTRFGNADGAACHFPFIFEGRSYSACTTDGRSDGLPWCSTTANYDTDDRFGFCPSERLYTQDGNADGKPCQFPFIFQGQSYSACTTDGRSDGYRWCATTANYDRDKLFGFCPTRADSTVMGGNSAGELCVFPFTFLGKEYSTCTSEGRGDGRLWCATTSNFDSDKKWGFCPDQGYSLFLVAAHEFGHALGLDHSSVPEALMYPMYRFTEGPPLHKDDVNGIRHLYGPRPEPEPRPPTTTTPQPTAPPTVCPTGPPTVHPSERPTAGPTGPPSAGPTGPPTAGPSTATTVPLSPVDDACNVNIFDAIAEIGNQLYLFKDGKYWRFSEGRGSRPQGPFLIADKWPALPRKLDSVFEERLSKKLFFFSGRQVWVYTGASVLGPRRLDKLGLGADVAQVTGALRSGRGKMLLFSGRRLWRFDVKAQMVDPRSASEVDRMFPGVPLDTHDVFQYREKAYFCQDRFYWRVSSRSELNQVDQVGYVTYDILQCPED
From the text: as §1
Recombinant Human Pro-MMP-9: Human pro-gelatinase B (pro-MMP-9) derived from U937 cDNA as described by Wilhelm, et al. J. Biol. Chem. 264, 17213, 1989 was expressed as the full-length form using a baculovirus protein expression system. The pro-enzyme was purified using methods previously described by Hibbs, et al. J. Biol. Chem. 260, 2493, 1984.
Activation of Pro-MMP-9: […] 20 µg/mL in 50 mM Tris at pH 7.4, 10mM CaCl2, 150 mM NaCl, and 0.005% Brij-35 (MMP-9 activation buffer) was activated by incubation with 0.5 mM p-aminophenylmercuric acetate (APMA) for 3.5 h at 37 °C. The enzyme was dialyzed against the same buffer to remove the APMA.
as §2, §3, §4, §5

Row | Compound | Ki [1] | Ki [2] | Ki [3]
1 | O=C(CC(CCc1ccccc1C(=O)NCCc1ccccc1)C(=O)O)c1ccc(-c2ccc(Cl)cc2)cc1 (stereo not drawn) [Compound I, 4'-chloro-γ-oxo-α-[2-[2-[[(2-phenylethyl)amino]carbonyl]phenyl]ethyl]-[1,1'-biphenyl]-4-butanoic acid] | 41.1 nM | 127 nM | 173 nM
2 | O=C(O)CNC(=O)c1ccc(CCC(CC(=O)c2ccc(-c3ccc(Cl)cc3)cc2)C(=O)O)cc1 (stereo not drawn) [Compound XXIV, α-[2-[4[[(carboxymethyl)amino]carbonyl]phenyl]ethyl]-4'-chloro-γ-oxo-[1,1'-biphenyl]-4-butanoic acid] | 82.4 nM | 293 nM | 915 nM
3 | CCOC(=O)CNC(=O)c1ccccc1CCC(CC(=O)c1ccc(-c2ccc(Cl)cc2)cc1)C(=O)O (stereo not drawn) [VIII, 4'-chloro-α-[2-[2-[[(2-ethoxy-2-oxo-ethyl)amino]carbonyl]phenyl]ethyl]-γ-oxo-[1,1'-biphenyl]-4-butanoic acid] | 56.8 nM | 165 nM | 806 nM
4 | CCOC(=O)CN(C)C(=O)c1cccc(CCC(CC(=O)c2ccc(-c3ccc(Cl)cc3)cc2)C(=O)O)c1 (stereo not drawn) [XVI, 4'-chloro-α-[2-[3-[[(2-ethoxy-2-oxoethyl)methylamino]carbonyl]phenyl]ethyl]-γ-oxo-[1,1'-biphenyl]-4-butanoic acid] | 9.86 nM | 24.8 nM | 137 nM
5 | CCOC(=O)CNC(=O)c1ccc(CCC(CC(=O)c2ccc(-c3ccc(Cl)cc3)cc2)C(=O)O)cc1 (stereo not drawn) [XIX, 4'-chloro-α-[2-[4-[[(2-ethoxy-2-oxoethyl)amino]carbonyl]phenyl]ethyl]-γ-oxo[1,1'-biphenyl]4-butanoic acid] | 82.3 nM | 376 nM | 423 nM
